This note sets out measurements from PubChem BioAssay (NCI).

Test systems include HL-60(TB) leukemia; IGROV1 ovarian; K-562 leukemia; M14 melanoma; OVCAR-5 ovarian; SR leukemia; UACC-257 melanoma; UO-31 renal; HS 578T breast.
Experiment in all cases: DTP human tumour cell line panel, 48 h

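A five-concentration, 48-hour dose response in 96-well plates underlies each endpoint, interpolated linearly between surrounding concentrations. At the TGI there is no net growth.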

Consider `O=[N+]([O-])c1ccc(-n2nnc(C3=NCCN3)c2-c2ccc(Cl)cc2)cc1`, for which the TGI with HL-60(TB) leukemia, in the assay with IGROV1 ovarian, in the assay on K-562 leukemia, in the assay with M14 melanoma, in the assay on OVCAR-5 ovarian and in the assay on SR leukemia was greater than 100 µM throughout. The TGI with UACC-257 melanoma and in the assay on UO-31 renal was greater than 100 µM each time.
With `Cc1c(Cl)cccc1N1C(=O)C(Cl)=C(Cl)C1=O`, the TGI is greater than 100 µM in the assay with IGROV1 ovarian; greater than 31.6 µM in the assay with K-562 leukemia; greater than 100 µM in the assay with M14 melanoma; greater than 100 µM in the assay on OVCAR-5 ovarian; 79.6 µM with SR leukemia; greater than 100 µM with UACC-257 melanoma. In addition, the TGI in the assay with UO-31 renal was greater than 100 µM.
In the case of `COc1ccc2oc(-c3cccnc3)cc(=O)c2c1`, the TGI was greater than 100 µM in the assay on HL-60(TB) leukemia; greater than 100 µM in the assay with IGROV1 ovarian; greater than 100 µM in the assay on K-562 leukemia; greater than 100 µM with M14 melanoma; greater than 100 µM in the assay with UACC-257 melanoma; 69.2 µM with UO-31 renal.
Turning to `CCOc1ccc2c(c1)[n+]([O-])c(-c1ccccc1Cl)c(N)[n+]2[O-]`, the TGI with HL-60(TB) leukemia, in the assay with IGROV1 ovarian, in the assay with K-562 leukemia, in the assay on M14 melanoma, with OVCAR-5 ovarian and in the assay with SR leukemia was greater than 100 µM in each case. For the same molecule, the TGI in the assay on UACC-257 melanoma and with UO-31 renal was greater than 100 µM in each case.
On to `CCC1C2C=CC(CC2)N1S(=O)(=O)c1ccc(C)cc1` (stereo unspecified), for which the TGI in the assay with HL-60(TB) leukemia was 19.5 µM; in the assay on K-562 leukemia, greater than 100 µM; in the assay on M14 melanoma, greater than 100 µM; with OVCAR-5 ovarian it was 79 µM; with SR leukemia, 72.3 µM; in the assay with UACC-257 melanoma it was 93.5 µM. Also, the TGI in the assay on UO-31 renal turned out to be 39.2 µM.
With `O=C(N/N=C1/C(=O)N(c2ccc(Cl)cc2Cl)C(=O)C(=O)C1c1nc2ccccc2o1)c1ccccc1O` (stereo unspecified), the TGI was greater than 100 µM in the assay with IGROV1 ovarian; greater than 100 µM with K-562 leukemia; 76.2 µM in the assay with M14 melanoma; greater than 100 µM with OVCAR-5 ovarian; greater than 100 µM in the assay on SR leukemia.
Regarding `O=C(O)[C@H](NS(=O)(=O)c1ccc2ccccc2c1)c1ccccc1`, the TGI in the assay on HL-60(TB) leukemia, in the assay with IGROV1 ovarian, with K-562 leukemia, with M14 melanoma, in the assay on OVCAR-5 ovarian and with UACC-257 melanoma was greater than 100 µM in each case. In the assay on UO-31 renal, this molecule displayed a TGI greater than 100 µM.
For `c1ccc(SC2CCSc3ccccc3C2Sc2ccccc2)cc1` (stereo unspecified), the TGI with HL-60(TB) leukemia, in the assay on K-562 leukemia, with M14 melanoma, with UACC-257 melanoma and in the assay with UO-31 renal was greater than 100 µM in each case.
In the case of `COc1ccc(/C(=N\NC(=O)C(N)=O)C(c2ccc(OC)cc2)C2(O)C(=O)Nc3c(Cl)cccc32)cc1` (stereo unspecified), the TGI in the assay with HL-60(TB) leukemia, in the assay on IGROV1 ovarian, in the assay with M14 melanoma, in the assay with OVCAR-5 ovarian, in the assay with UACC-257 melanoma and with UO-31 renal was greater than 100 µM each time.
Regarding `CC1=C2CCCC2=C/C(=N/Nc2ccc([N+](=O)[O-])cc2[N+](=O)[O-])CC1`, the TGI in the assay on HL-60(TB) leukemia, in the assay on IGROV1 ovarian, in the assay with K-562 leukemia, with M14 melanoma, in the assay on OVCAR-5 ovarian and with SR leukemia was greater than 100 µM each time. For the same molecule, the TGI with UACC-257 melanoma and in the assay with UO-31 renal was greater than 100 µM each time.
Turning to `CC1=CC(=O)[C@@H](O)[C@]2(C)[C@H]3[C@@]4(O)OC[C@]35[C@H]([C@@H](C)[C@H]4O)[C@@H](O)C(=O)O[C@@H]5C[C@@H]12`, the TGI in the assay with HS 578T breast was 1.19 µM; in the assay on IGROV1 ovarian, 3.42 µM; in the assay with K-562 leukemia, greater than 100 µM; in the assay on M14 melanoma it was 1.04 µM; in the assay on OVCAR-5 ovarian, 5.4 µM; in the assay with SR leukemia, greater than 100 µM. The TGI with UACC-257 melanoma is 1.77 µM; in the assay with UO-31 renal, 6.71 µM.
Take `O=c1n(-c2ccccc2)c(=O)n2n1C1C=CC2C2C(C1)C2(Cl)Cl` (stereo unspecified): the TGI in the assay on HL-60(TB) leukemia, with IGROV1 ovarian, in the assay with K-562 leukemia, with M14 melanoma, in the assay on OVCAR-5 ovarian and in the assay with SR leukemia was greater than 100 µM in each case. The TGI in the assay on UACC-257 melanoma and in the assay on UO-31 renal was greater than 100 µM each time.
For the molecule `CCOC(=O)C(C)(C)Oc1ccc2c(C)c(-c3ccc(Cl)cc3)c(=O)oc2c1`, the TGI in the assay on HL-60(TB) leukemia, in the assay on IGROV1 ovarian, with K-562 leukemia, with M14 melanoma, in the assay with SR leukemia and in the assay with UACC-257 melanoma was greater than 100 µM in each case. In the assay with UO-31 renal, the TGI is greater than 100 µM.
Turning to `O=C1CC(C[C@H](O)C2CCCCC2O)CC(=O)N1Cc1ccccc1` (stereo partly specified), the TGI with HL-60(TB) leukemia, in the assay on IGROV1 ovarian, in the assay with K-562 leukemia, with M14 melanoma, in the assay on OVCAR-5 ovarian and with SR leukemia was greater than 100 µM in each case. Moreover, the TGI in the assay with UACC-257 melanoma and with UO-31 renal was greater than 100 µM in each case.
As for `CCOc1ccc(N2C(=O)/C(=C/c3ccc(N(CCC#N)CCC#N)cc3)N=C2c2cc([N+](=O)[O-])ccc2Cl)cc1`, the TGI was greater than 100 µM in the assay on HL-60(TB) leukemia; 81.2 µM in the assay with K-562 leukemia; 61.3 µM in the assay with M14 melanoma; greater than 100 µM in the assay with OVCAR-5 ovarian; greater than 100 µM with UO-31 renal.
Turning to `COc1ccc(-c2cc(-c3ccccc3)c(C#N)c(=O)n2C2OC(CO)C(O)C(O)C2O)cc1` (stereo unspecified), the TGI in the assay with HL-60(TB) leukemia, with IGROV1 ovarian, in the assay with K-562 leukemia, in the assay on M14 melanoma, in the assay with OVCAR-5 ovarian and in the assay on SR leukemia was greater than 100 µM in each case. For the same molecule, the TGI with UACC-257 melanoma and in the assay on UO-31 renal was greater than 100 µM throughout.
As for `C[C@H]1NC(=O)C2CCCCN2C(=O)CN(C)C(=O)CNC(=O)C2CCCCN2C(=O)[C@@H](NC(=O)c2nc3ccccc3cc2O)[C@@H](C)NC(=O)C2CCCCN2C(=O)CN(C)C(=O)CNC(=O)[C@@H]2CCCCN2C(=O)C1NC(=O)c1nc2ccccc2cc1O` (stereo partly specified), the TGI in the assay with HL-60(TB) leukemia is 4.72 µM; in the assay on IGROV1 ovarian, greater than 100 µM; in the assay on K-562 leukemia it was 1.1 µM; with M14 melanoma, 1.27 µM; with OVCAR-5 ovarian, 7.55 µM; in the assay with UACC-257 melanoma it was 0.537 µM. Also, in the assay with UO-31 renal, the concentration for total growth inhibition (TGI) is 0.984 µM.
As to `COc1ccc(NC(=O)/C(N=O)=C(/C)O)cc1`, the TGI in the assay with HL-60(TB) leukemia, with IGROV1 ovarian, with K-562 leukemia, with M14 melanoma, in the assay with OVCAR-5 ovarian and in the assay on SR leukemia was greater than 100 µM in each case. Besides, the concentration for total growth inhibition (TGI) with UACC-257 melanoma and in the assay on UO-31 renal was greater than 100 µM each time.
